Results from patent publication US12679878B2, “CRF2 receptor agonists and their use in therapy” (SANOFI, priority 2020, dated 2026).
Values belong to the molecule of their own block, whether it stands above or below them. Starred links: 1 amine or outer side, 2 acyl side, 3 side chain; linkers in the order of their positions; H or OH if unused. Non-standard residues stand in square brackets, D forms with d. Residues, ends and D or L forms follow the SMILES beside them. Groups on a side chain read outwards from the residue. No end group written: not given here. *: point of attachment. C18 diacid = O=C(O)CCCCCCCCCCCCCCCCC(=O)*; γGlu = O=C(O)[C@H](CCC(=O)[*:2])N[*:1]; Palmitoyl = CCCCCCCCCCCCCCCC(=O)*; AEEA = NCCOCCOCC(=O)O; Aib = CC(C)(N)C(=O)O

Legend:
human CRF2α receptor = molecular target: T1, human CRF2α receptor (Homo sapiens, UniProt Q13324); experiment: cAMP agonism at human CRF2 α receptor in TeloHEAC cells (Example 7); assay type: cell-based; details: cAMP HTRF, TeloHEAC cells stably expressing human CRF2 α, 0% HSA; read-out: EC50 [nM], 0% HSA
T1 construct: expressed in transfected cells; host or cells: TeloHEAC
T1 sequence (Q13324 1-411): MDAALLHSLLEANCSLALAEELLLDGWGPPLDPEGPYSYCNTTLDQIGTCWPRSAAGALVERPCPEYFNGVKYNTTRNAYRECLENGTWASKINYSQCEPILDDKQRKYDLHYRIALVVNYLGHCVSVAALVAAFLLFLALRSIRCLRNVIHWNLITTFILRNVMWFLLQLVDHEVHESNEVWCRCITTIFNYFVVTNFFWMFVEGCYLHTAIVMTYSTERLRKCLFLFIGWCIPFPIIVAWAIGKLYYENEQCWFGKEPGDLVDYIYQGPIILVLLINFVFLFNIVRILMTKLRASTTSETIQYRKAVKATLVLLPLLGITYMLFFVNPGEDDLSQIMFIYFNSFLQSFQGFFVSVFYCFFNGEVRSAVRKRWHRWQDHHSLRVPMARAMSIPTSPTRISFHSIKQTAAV
Outline: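 Thawed frozen stably transfected cells in HBSS/20 mM HEPES (0% or 0.1% HSA) plus 2 mM IBMX were exposed to compound at 2000 cells/well for 30 min at room temperature. Intracellular cAMP was read by HTRF (665/620 nm ratio) after 1 h lysis; EC50 was derived with 1000 nM urocortin 2 set as 100%.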

rat CRF2R α receptor = experiment: cAMP agonism at rat CRF2R α receptor in A7R5 rat aortic smooth muscle cells (Example 8); assay type: cell-based; details: cAMP HTRF, A7R5 rat aortic smooth muscle cell line, 0% HSA
Outline: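 Thawed cryopreserved A7R5 cells in HBSS/20 mM HEPES (0 or 0.1% HSA) with 2 mM IBMX, 2000 cells/well, were exposed to compound for 30 min at room temperature. cAMP was read by HTRF (665/620 nm ratio) after 1 h with lysis reagents. Activity was normalised to 1000 nM urocortin 2 as 100%, and EC50 was taken as the concentration giving 50% of maximal activation.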

CRF1R receptor = molecular target: T2, CRF1R receptor (Homo sapiens, UniProt P34998); experiment: cAMP activity at anti-target CRF1R, CRF1R-overexpression CHO cell line (Example 9); assay type: cell-based; details: CRF1R-overexpression CHO cell line
T2 construct: host or cells: CHO-K1 clone 2
T2 sequence (P34998 24-415): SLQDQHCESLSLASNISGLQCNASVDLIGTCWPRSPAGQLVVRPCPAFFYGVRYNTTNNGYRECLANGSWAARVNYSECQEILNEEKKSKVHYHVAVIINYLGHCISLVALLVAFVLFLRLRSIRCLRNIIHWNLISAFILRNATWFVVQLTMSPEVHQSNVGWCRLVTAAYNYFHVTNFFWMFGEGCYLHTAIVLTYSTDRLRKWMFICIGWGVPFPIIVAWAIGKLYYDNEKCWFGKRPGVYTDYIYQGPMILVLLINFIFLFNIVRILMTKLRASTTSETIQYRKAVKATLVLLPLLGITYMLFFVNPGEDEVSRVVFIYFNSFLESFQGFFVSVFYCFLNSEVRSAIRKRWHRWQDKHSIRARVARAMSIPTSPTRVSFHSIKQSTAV
Outline: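 cAMP accumulation was read by HTRF after 30 min at room temperature of compound treatment. Cells were cryopreserved CHO cells overexpressing CRF1R, plated at 2000/well in IBMX (2 mM)-containing HBSS/HEPES buffer with 0 or 0.1% HSA. Activity was normalized to 1000 nM UCN2 as 100%.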

[1] = Solubility in buffer systems by UPLC-UV (Example 13); assay type: physicochemical; details: pH 7.4, Solubility in Buffer C [mg/ml]
Outline: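 The supernatant was diluted 1:10 and quantified by UPLC-UV peak area against a reference standard curve, correcting for sequence-based extinction coefficients.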

[2] = Pharmacokinetic properties in rats, i.v. or s.c. (Example 16); assay type: in vivo, SD rat; details: male, plasma, Rat; for AUC(0-t) / Cmax / half-life: Sprague-Dawley (SD)
Experimental: The pharmacokinetic properties of exemplary peptides SEQ ID NO: 35 and SEQ ID NO: 24 were assessed in mice and rats.
The test compound was administered in a suitable buffer system (PBS buffer solution at pH 7.4, or DPBS solution) at concentrations of 0.05, 0.1, 0.5 or 1 mg/ml depending on the dose, species and administration volume. Female C57BI/6 mice and male SD rate were dosed 0.1 mg/kg or 0.3 mg/kg intravenously or subcutaneously. The animals were sacrificed, and blood samples were collected after 0.08, 0.25, 0.5, 1, 2, 4, 8, 24, 32, and 48 hours post-intravenous administration and 0.25, 0.5, 1, 2, 4, 8, 24, 32, and 48 hours post-subcutaneous administration, respectively. Plasma samples were analysed after protein precipitation via liquid chromatography mass spectrometry (LC/MS). Pharmacokinetic parameters and half-life were calculated using Phoenix-WinNonlin 8.1 using a non-compartmental model and linear trapezoidal interpolation calculation.

[3] = molecular target: T3, CRF1R receptor (anti-target) (UniProt P34998 24-415, limits assumed); experiment: cell-based or functional assay
T3 sequence (looked up): T2 sequence (P34998 24-415)

[4] = molecular target: human corticotropin-releasing factor 2α (CRF2α receptor) (human), Q13324; experiment: cell-based or functional assay
[5] = molecular target: human corticotropin-releasing factor 2α receptor (CRF2α receptor) (human), Q13324; experiment: cell-based or functional assay

EC50 (human CRF2α receptor): 6.95 nM | EC50 (rat CRF2R α receptor): 4.94 nM | EC50 (CRF1R receptor; 0% HSA): > 1000 nM | Emax (CRF1R receptor; read-out: Emax (%)): 1.48% | solubility at 1 h [1]: > 10.1 mg/mL | clearance ([2]; SD, iv, 0.1 mg/kg i.v., read-out: CI (converted)): 0.43 mL/min/kg | bioavailability ([2]; SD, sc, 0.3 mg/kg s.c.): 24% | AUC(0-t) ([2]; iv, 0.1 mg/kg i.v.): 3790 ng·h/mL | Cmax ([2]; iv, 0.1 mg/kg i.v.): 1480 ng/mL | half-life ([2]; iv, 0.1 mg/kg i.v.): 4.81 h | AUC(0-t) ([2]; sc, 0.3 mg/kg s.c.): 2610 ng·h/mL | Cmax ([2]; sc, 0.3 mg/kg s.c.): 171 ng/mL | half-life ([2]; sc, 0.3 mg/kg s.c.): 5.51 h
Molecule: CC[C@H](C)[C@H](N)C(=O)N[C@H](C(=O)N[C@@H](CC(C)C)C(=O)N[C@@H](CO)C(=O)N[C@@H](CC(C)C)C(=O)N[C@@H](CC(=O)O)C(=O)N[C@@H](C(=O)N1CCC[C@H]1C(=O)N[C@H](C(=O)N[C@@H](CCCCN)C(=O)N[C@@H](CC(C)C)C(=O)N[C@@H](CCCCNC(=O)COCCOCCNC(=O)COCCOCCNC(=O)CC[C@H](NC(=O)CCCCCCCCCCCCCCCCC(=O)O)C(=O)O)C(=O)N[C@@H](CCC(N)=O)C(=O)N[C@@H](CCCCN)C(=O)N[C@@H](CC(C)C)C(=O)N[C@@H](CC(C)C)C(=O)N[C@@H](CCCCN)C(=O)N[C@@H](CCC(N)=O)C(=O)N[C@@H](CCC(=O)O)C(=O)N[C@@H](CCCNC(=N)N)C(=O)N[C@@H](CCC(N)=O)C(=O)N[C@@H](CCCNC(=N)N)C(=O)N[C@@H](CCCCN)C(=O)N[C@@H](CCC(=O)O)C(=O)N[C@@H](CCCNC(=N)N)C(=O)N[C@@H](CCC(=O)O)C(=O)N[C@@H](CCC(N)=O)C(=O)N[C@@H](C)C(=O)N[C@@H](CCC(=O)O)C(=O)N[C@@H](CCCCN)C(=O)N[C@@H](CC(N)=O)C(=O)N[C@@H](CCCCN)C(=O)N[C@@H](CCCNC(=N)N)C(=O)N[C@H](C(=O)N[C@@H](CC(C)C)C(=O)N[C@@H](CCC(=O)O)C(=O)N[C@@H](CCCNC(=N)N)C(=O)N[C@H](C(N)=O)C(C)C)[C@@H](C)CC)[C@@H](C)O)C(C)C)C(C)C [compound 24] (H-IVLSLD[dV]PTKLK([AEEA-AEEA-γGlu-C18 diacid])QKLLKQERQRKEREQAEKNKRILERV-NH2; N-terminus assumed)

CRF1/CRF2 ratio (of EC50) [3]: 6 | CRF1 EC50 (cAMP, HTRF) [3]: 8.91 nM | EC50 [nM], 0% HSA (cAMP, HTRF) [4]: 1.48 nM | CRF2 EC50 (cAMP, HTRF) [5]: 1.48 nM
B1: peptide of SEQ ID NO: 220 (peptide)
peptide: IVLSLD[dV]PIGLK([γGlu-Palmitoyl])QILLKQERQKK[Aib]RQQAETNKRILERV-NH2
modifications: N-terminus assumed
SMILES: CCCCCCCCCCCCCCCC(=O)N[C@@H](CCC(=O)NCCCC[C@H](NC(=O)[C@H](CC(C)C)NC(=O)CNC(=O)[C@@H](NC(=O)[C@@H]1CCCN1C(=O)[C@H](NC(=O)[C@H](CC(=O)O)NC(=O)[C@H](CC(C)C)NC(=O)[C@H](CO)NC(=O)[C@H](CC(C)C)NC(=O)[C@@H](NC(=O)[C@@H](N)[C@@H](C)CC)C(C)C)C(C)C)[C@@H](C)CC)C(=O)N[C@@H](CCC(N)=O)C(=O)N[C@H](C(=O)N[C@@H](CC(C)C)C(=O)N[C@@H](CC(C)C)C(=O)N[C@@H](CCCCN)C(=O)N[C@@H](CCC(N)=O)C(=O)N[C@@H](CCC(=O)O)C(=O)N[C@@H](CCCNC(=N)N)C(=O)N[C@@H](CCC(N)=O)C(=O)N[C@@H](CCCCN)C(=O)N[C@@H](CCCCN)C(=O)NC(C)(C)C(=O)N[C@@H](CCCNC(=N)N)C(=O)N[C@@H](CCC(N)=O)C(=O)N[C@@H](CCC(N)=O)C(=O)N[C@@H](C)C(=O)N[C@@H](CCC(=O)O)C(=O)N[C@H](C(=O)N[C@@H](CC(N)=O)C(=O)N[C@@H](CCCCN)C(=O)N[C@@H](CCCNC(=N)N)C(=O)N[C@H](C(=O)N[C@@H](CC(C)C)C(=O)N[C@@H](CCC(=O)O)C(=O)N[C@@H](CCCNC(=N)N)C(=O)N[C@H](C(N)=O)C(C)C)[C@@H](C)CC)[C@@H](C)O)[C@@H](C)CC)C(=O)O

CRF1/CRF2 ratio (of EC50) [3]: 2 | CRF1 EC50 (cAMP, HTRF) [3]: 13.5 nM | EC50 [nM], 0% HSA (cAMP, HTRF) [4]: 5.98 nM | CRF2 EC50 (cAMP, HTRF) [5]: 5.98 nM
B2: peptide of SEQ ID NO: 219 (peptide)
peptide: IVLSLD[dV]PIKLK([γGlu-Palmitoyl])QILLKQARQK[Aib]QRAQAEKNKRILERV-NH2
modifications: N-terminus assumed
SMILES: CCCCCCCCCCCCCCCC(=O)N[C@@H](CCC(=O)NCCCC[C@H](NC(=O)[C@H](CC(C)C)NC(=O)[C@H](CCCCN)NC(=O)[C@@H](NC(=O)[C@@H]1CCCN1C(=O)[C@H](NC(=O)[C@H](CC(=O)O)NC(=O)[C@H](CC(C)C)NC(=O)[C@H](CO)NC(=O)[C@H](CC(C)C)NC(=O)[C@@H](NC(=O)[C@@H](N)[C@@H](C)CC)C(C)C)C(C)C)[C@@H](C)CC)C(=O)N[C@@H](CCC(N)=O)C(=O)N[C@H](C(=O)N[C@@H](CC(C)C)C(=O)N[C@@H](CC(C)C)C(=O)N[C@@H](CCCCN)C(=O)N[C@@H](CCC(N)=O)C(=O)N[C@@H](C)C(=O)N[C@@H](CCCNC(=N)N)C(=O)N[C@@H](CCC(N)=O)C(=O)N[C@@H](CCCCN)C(=O)NC(C)(C)C(=O)N[C@@H](CCC(N)=O)C(=O)N[C@@H](CCCNC(=N)N)C(=O)N[C@@H](C)C(=O)N[C@@H](CCC(N)=O)C(=O)N[C@@H](C)C(=O)N[C@@H](CCC(=O)O)C(=O)N[C@@H](CCCCN)C(=O)N[C@@H](CC(N)=O)C(=O)N[C@@H](CCCCN)C(=O)N[C@@H](CCCNC(=N)N)C(=O)N[C@H](C(=O)N[C@@H](CC(C)C)C(=O)N[C@@H](CCC(=O)O)C(=O)N[C@@H](CCCNC(=N)N)C(=O)N[C@H](C(N)=O)C(C)C)[C@@H](C)CC)[C@@H](C)CC)C(=O)O
